Blank lines part the entries; values can stand above or below the compound they belong to. *1 amine or outer side, *2 acyl side, *3 side chain or, on linkers, in order; H or OH if unused. Where a SMILES comes first, the peptide text is derived from it. Bridges are numbered along the chain shown (N, C = ends). [ ]: non-standard residue; d: D form. The star is where a group is joined. ξ: configuration not given here. Succinimide(1-Et,3-yl) = CCN1C(=O)CC(*)C1=O; Bta = N[C@@H](Cc1csc2ccccc12)C(=O)O; Cysteamide = C(CS[*:3])N[*:1]; Tle = CC(C)(C)[C@H](N)C(=O)O; β3hL = CC(C)C[C@H](N)CC(=O)O; β3hK = NCCCC[C@H](N)CC(=O)O; hCys = N[C@@H](CCS)C(=O)O; ξβ3hV = CC(C)C(N)CC(=O)O; Aib = CC(C)(N)C(=O)O
Experiments:
[1] = biological target: Tissue Factor Pathway Inhibitor (TFPI) (Homo sapiens, UniProt P10646); experiment: IC50 ELISA | IC50 [nM]
Tissue Factor Pathway Inhibitor (TFPI), sequence (P10646 29-304 limits assumed): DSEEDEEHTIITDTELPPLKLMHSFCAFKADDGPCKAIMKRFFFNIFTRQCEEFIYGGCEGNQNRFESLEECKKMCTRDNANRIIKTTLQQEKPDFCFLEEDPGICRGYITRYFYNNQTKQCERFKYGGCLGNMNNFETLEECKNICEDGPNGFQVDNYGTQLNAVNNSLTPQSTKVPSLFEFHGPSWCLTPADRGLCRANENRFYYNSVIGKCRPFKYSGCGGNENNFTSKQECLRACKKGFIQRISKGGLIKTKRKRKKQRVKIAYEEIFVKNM

[2] = plasma stability in human plasma; format: in vitro ADME; conditions: for remaining at 24 h: 24 hour incubation in human plasma, quantitative ELISA
TFPI [3] = biological target: T1, TFPI (Homo sapiens, UniProt P10646); experiment: Extrinsic Tenase Inhibition assay | % Inhibition @ 2.5µM
TFPI [4] = biological target: T1, TFPI; experiment: % Inhibition @ 2.5µM
TFPI [5] = biological target: T1, TFPI; experiment: IC50 Mean (nM]
Target sequence in this assay (P10646 29-304 limits assumed): as above

TFPI [6] = biological target: T1, TFPI; experiment: IC50 [nm]
Target sequence in this assay (P10646 29-304 limits assumed): as above

Compound: CC(=O)N[C@@H](Cc1ccccc1)C(=O)N[C@@H](CCC(N)=O)C(=O)N[C@@H](CO)C(=O)N[C@@H](CCCCN)C(=O)N1CCC[C@@H]1C(=O)N[C@@H](CC(N)=O)C(=O)N[C@H](C(=O)N[C@@H](Cc1c[nH]cn1)C(=O)N[C@H](C(=O)N1CCC[C@H]1C(=O)N[C@@H]1CSSCC[C@@H](C(=O)N[C@@H](CCCNC(=N)N)C(=O)N[C@@H](CC(C)C)C(=O)NC(C)(C)C(=O)N[C@@H](C)C(=O)N[C@@H](CCCCN)C(=O)N[C@@H](CC(C)C)C(N)=O)NC(=O)[C@H](Cc2csc3ccccc23)NC(=O)[C@H](Cc2ccc(O)cc2)NC1=O)C(C)C)C(C)C [JBT2518 | 4233, Ac-FQSKpNVHVPcY-Bta--Hcy-RL-Aib-AKL-NH2] (Ac-FQSK[dP]NVHVP[dC]Y[Bta][hCys]RL[Aib]AKL-NH2; disulfide 11-14)
IC50 [1]: 10.8 nM

Compound: CC(=O)N[C@@H](Cc1ccccc1)C(=O)N[C@@H](CCC(N)=O)C(=O)N[C@@H](CO)C(=O)N[C@@H](CCCCN)C(=O)NCC(=O)N[C@@H](CC(N)=O)C(=O)N[C@H](C(=O)N[C@@H](Cc1ccccc1)C(=O)N[C@H](C(=O)N[C@@H](Cc1ccccc1)C(=O)NCC(=O)N[C@@H](Cc1ccc(O)cc1)C(=O)N[C@@H](Cc1ccccc1)C(=O)N[C@@H](CCC(=O)O)C(=O)N[C@@H](CCCNC(=N)N)C(=O)N[C@@H](CC(C)C)C(=O)N[C@@H](CCCNC(=N)N)C(=O)N[C@@H](C)C(=O)N[C@@H](CCCCN)C(=O)N[C@H](CC(N)=O)CC(C)C)C(C)C)C(C)C [JBT0534 | 204] (Ac-FQSKGNVFVFGYFERLRAK[β3hL]-NH2)
IC50 (TFPI [5]): 84 nM

Compound: CC(=O)N[C@@H](Cc1ccccc1)C(=O)N[C@@H](CCC(N)=O)C(=O)N[C@@H](CO)C(=O)N[C@@H](CCCCN)C(=O)NCC(=O)N[C@@H](CC(N)=O)C(=O)N[C@H](C(=O)N[C@@H](Cc1ccccc1)C(=O)N[C@H](C(=O)N[C@@H](Cc1ccccc1)C(=O)NCC(=O)N[C@@H](Cc1ccc(O)cc1)C(=O)N[C@@H](Cc1ccccc1)C(=O)N[C@@H](CCC(=O)O)C(=O)N[C@@H](CCCNC(=N)N)C(=O)N[C@@H](CC(C)C)C(=O)N[C@@H](CCCNC(=N)N)C(=O)N[C@@H](C)C(=O)N[C@@H](CCCCN)CC(=O)N[C@@H](CC(C)C)C(N)=O)C(C)C)C(C)C [JBT0533 | 424] (Ac-FQSKGNVFVFGYFERLRA[β3hK]L-NH2)
IC50 (TFPI [5]): 756 nM

Compound: CSCC[C@H](NC(=O)CNC(=O)[C@H](CO)NC(=O)[C@H](Cc1ccccc1)NC(=O)[C@H](Cc1c[nH]c2ccccc12)NC(=O)[C@H](CCCCN)NC(=O)[C@H](Cc1ccc(O)cc1)NC(=O)[C@H](CCCNC(=N)N)NC(=O)[C@H](CO)NC(C)=O)C(=O)N[C@@H](CCCNC(=N)N)C(=O)N[C@@H](CC(=O)O)C(=O)N[C@@H](CCSC)C(=O)N[C@@H](CCCCN)C(=O)NCC(=O)N[C@H](C(=O)N[C@@H](CCSC)C(=O)N[C@@H](CO)C(=O)N[C@@H](CO)C(=O)N[C@H](C(=O)N[C@@H](Cc1c[nH]c2ccccc12)C(=O)N[C@H](C(=O)N[C@@H](CCCCN)C(=O)N[C@@H](Cc1ccccc1)C(N)=O)C(C)C)C(C)C)[C@@H](C)O [JBT0417 | 1229] (Ac-SRYKWFSGMRDMKGTMSSVWVKF-NH2)
IC50 (TFPI [6]): > 50000 nM

Compound: CCN1C(=O)CC(SC[C@H](NC(=O)[C@H]2CCCN2C(=O)[C@H](CCCCN)NC(=O)[C@H](CO)NC(=O)[C@H](CCC(N)=O)NC(=O)[C@H](Cc2ccccc2)NC(C)=O)C(=O)N[C@H](C(=O)N[C@@H](Cc2c[nH]cn2)C(=O)N[C@H](C(=O)N[C@@H](CC(=O)O)C(=O)N[C@H](C)C(=O)N[C@@H](Cc2ccc(O)cc2)C(=O)N[C@@H](Cc2csc3ccccc23)C(=O)N[C@@H](CCC(=O)O)C(=O)N[C@@H](CCCNC(=N)N)C(=O)N[C@@H](CC(C)C)C(=O)NC(C)(C)C(=O)N[C@@H](C)C(=O)N[C@@H](CCCCN)C(=O)N[C@@H](CC(C)C)C(N)=O)C(C)(C)C)C(C)C)C1=O (stereo partly drawn) [JBT2502 | 4217, Ac-FQSKp-C(NEM)-VH-Tle-DaY-Bta-ERL-Aib-AKL-NH2] (Ac-FQSK[dP]C(Succinimide(1-Et,3-yl))VH[Tle]D[dA]Y[Bta]ERL[Aib]AKL-NH2)
IC50 [1]: 4.1 nM

Compound: CC(=O)N[C@@H](Cc1ccccc1)C(=O)N[C@@H](CCC(N)=O)C(=O)N[C@@H](CO)C(=O)N[C@@H](CCCCN)C(=O)NCC(=O)N[C@@H](CC(N)=O)C(=O)N[C@H](C(=O)N[C@@H](Cc1ccccc1)C(=O)NC(CC(=O)N[C@@H](Cc1ccccc1)C(=O)NCC(=O)N[C@@H](Cc1ccc(O)cc1)C(=O)N[C@@H](Cc1ccccc1)C(=O)N[C@@H](CCC(=O)O)C(=O)N[C@@H](CCCNC(=N)N)C(=O)N[C@@H](CC(C)C)C(=O)N[C@@H](CCCNC(=N)N)C(=O)N[C@@H](C)C(=O)N[C@@H](CCCCN)C(=O)N[C@@H](CC(C)C)C(N)=O)C(C)C)C(C)C (stereo partly drawn) [JBT0523 | 757] (Ac-FQSKGNVF[ξβ3hV]FGYFERLRAKL-NH2)
IC50 (TFPI [5]): > 5000 nM

Compound: CC(=O)N[C@@H](Cc1ccccc1)C(=O)N[C@@H](CCC(N)=O)C(=O)N[C@@H](CO)C(=O)N[C@@H](CCCCN)C(=O)NCC(=O)N[C@@H](CC(N)=O)C(=O)NC(CC(=O)N[C@@H](Cc1ccccc1)C(=O)N[C@H](C(=O)N[C@@H](Cc1ccccc1)C(=O)NCC(=O)N[C@@H](Cc1ccc(O)cc1)C(=O)N[C@@H](Cc1ccccc1)C(=O)N[C@@H](CCC(=O)O)C(=O)N[C@@H](CCCNC(=N)N)C(=O)N[C@@H](CC(C)C)C(=O)N[C@@H](CCCNC(=N)N)C(=O)N[C@@H](C)C(=O)N[C@@H](CCCCN)C(=O)N[C@@H](CC(C)C)C(N)=O)C(C)C)C(C)C (stereo partly drawn) [JBT0521 | 756] (Ac-FQSKGN[ξβ3hV]FVFGYFERLRAKL-NH2)
IC50 (TFPI [5]): > 5000 nM

Compound: CC(=O)N[C@@H](Cc1ccccc1)C(=O)N[C@@H](CCC(N)=O)C(=O)N[C@@H](CO)C(=O)N[C@@H](CCCCN)C(=O)N1CCC[C@@H]1C(=O)N[C@@H](CC(N)=O)C(=O)N[C@H](C(=O)N[C@@H](Cc1c[nH]cn1)C(=O)N[C@H](C(=O)N1CCC[C@H]1C(=O)N[C@H](C)C(=O)N[C@@H](Cc1ccc(O)cc1)C(=O)N[C@@H](Cc1csc2ccccc12)C(=O)N[C@@H](CCC(=O)O)C(=O)N[C@@H](CCCNC(=N)N)C(=O)N[C@@H](CC(C)C)C(=O)NC(C)(C)C(=O)N[C@@H]1CSSCCNC(=O)[C@H](CC(C)C)NC(=O)[C@H](CCCCN)NC1=O)C(C)C)C(C)C [JBT2517 | 4232, Ac-FQSKpNVHVPaY-Bta-ERL-Aib-cKL-Cea-] (Ac-FQSK[dP]NVHVP[dA]Y[Bta]ERL[Aib][dC]KL-Cysteamide; disulfide 18-C)
IC50 [1]: 269 nM

Continued, values first:

Plasma Stability (half life in minutes) human ([2]; human plasma): >2 h
Compound: CC(=O)N[C@@H](Cc1ccccc1)C(=O)N[C@@H](CCC(N)=O)C(=O)N[C@@H](CO)C(=O)N[C@@H](CCCCN)C(=O)N(C)CC(=O)N[C@@H](CC(N)=O)C(=O)N[C@H](C(=O)N[C@@H](Cc1ccccc1)C(=O)N[C@H](C(=O)N[C@@H](CC(=O)O)C(=O)NCC(=O)N[C@@H](Cc1ccc(O)cc1)C(=O)N[C@@H](Cc1ccccc1)C(=O)N[C@@H](CCC(=O)O)C(=O)N[C@@H](CCCNC(=N)N)C(=O)N[C@@H](CC(C)C)C(=O)NC(C)(C)C(=O)N[C@@H](C)C(=O)N[C@@H](CCCCN)C(=O)N[C@@H](CC(C)C)C(N)=O)C(C)C)C(C)C [JBT1584]

Extrinsic Tenase Inhibition assay | % Inhibition @ […] (TFPI [3]): 1%
% Inhibition @ […] (TFPI [4]): 3%
Compound: Ac-SGYASFPLAVQLHVSKRSKEMALARLAYKTS-NH2 (SEQ ID NO: 2140) [JBT0686]

Extrinsic Tenase Inhibition assay | % Inhibition @ […] (TFPI [3]): 7%
% Inhibition @ […] (TFPI [4]): 0%
Compound: Ac-SGYASFPLAVQLHVSARSKEMALARLYYKTS-NH2 (SEQ ID NO: 2136) [JBT0675]

remaining at 24 h [2]: 82%
Compound: CC(=O)N[C@@H](Cc1ccccc1)C(=O)N[C@@H](CCC(N)=O)C(=O)N[C@@H](CO)C(=O)N[C@@H](CCCCN)C(=O)N1CCC[C@@H]1C(=O)N[C@@H](CC(N)=O)C(=O)N[C@H](C(=O)N[C@@H](Cc1cnc[nH]1)C(=O)N[C@H](C(=O)N[C@@H](CC(=O)O)C(=O)NCC(=O)N[C@@H](Cc1ccc(O)cc1)C(=O)N[C@@H](Cc1ccccc1)C(=O)N[C@@H](CCC(=O)O)C(=O)N[C@@H](CCCNC(=N)N)C(=O)N[C@@H](CC(C)C)C(=O)NC(C)(C)C(=O)N[C@@H](C)C(=O)N[C@@H](CCCCN)C(=O)N[C@@H](CC(C)C)C(N)=O)C(C)(C)C)C(C)C [JBT2431] (Ac-FQSK[dP]NVH[Tle]DGYFERL[Aib]AKL-NH2)

Extrinsic Tenase Inhibition assay | % Inhibition @ […] (TFPI [3]): 5%
% Inhibition @ […] (TFPI [4]): 10%
Compound: Ac-SGYASFPLAVQLHVAKRSKEMALARLYYKTS-NH2 (SEQ ID NO: 2008) [JBT0674]

remaining at 24 h [2]: 76%
Compound: CC(=O)N[C@@H](Cc1ccccc1)C(=O)N[C@@H](CCC(N)=O)C(=O)N[C@@H](CO)C(=O)N[C@@H](CCCCN)C(=O)N1CCC[C@@H]1C(=O)N[C@@H](CC(N)=O)C(=O)N[C@H](C(=O)N[C@@H](Cc1cnc[nH]1)C(=O)N[C@H](C(=O)N1CCC[C@H]1C(=O)NCC(=O)N[C@@H](Cc1ccc(O)cc1)C(=O)N[C@@H](Cc1ccccc1)C(=O)N[C@@H](CCC(=O)O)C(=O)N[C@@H](CCCNC(=N)N)C(=O)N[C@@H](CC(C)C)C(=O)NC(C)(C)C(=O)N[C@@H](C)C(=O)N[C@@H](CCCCN)C(=O)N[C@@H](CC(C)C)C(N)=O)C(C)C)C(C)C [JBT2432]

Extrinsic Tenase Inhibition assay | % Inhibition @ […] (TFPI [3]): 1%
% Inhibition @ […] (TFPI [4]): 4%
Compound: Ac-SGYASFPLAVQLHVSKRSKEMALARAYYKTS-NH2 (SEQ ID NO: 2021) [JBT0685]

Extrinsic Tenase Inhibition assay | % Inhibition @ […] (TFPI [3]): 2%
% Inhibition @ […] (TFPI [4]): 4%
Compound: Ac-SGYASFPLAVQLHVSKRAKEMALARLYYKTS-NH2 (SEQ ID NO: 2009) [JBT0677]

Reference: patent US10201586B2 (dated 2019)
